# Results from patent US8017786B2, “Substituted β-phenyl-α-hydroxy-propanoic acid, synthesis method and use thereof” (Northwest University, priority 2006, dated 2011).
# Columns and labels:
# Format in all cases: in vivo, rat
# Bax = assay: Immunohistochemistry protein expression in I/R myocardial tissue: Bax; settings: for Bax protein expression, OD value: 5 days, ischemia 30 min, reperfusion 2 h
# Description: (§1) 52 SD rats having a body weight of 220±20 g were randomly divided into model control group, salviannic acid injection group (in 1 mL/kg), and group of bornyl β-(3,4-dihydroxylphenyl)-α-hydroxylpropionate ester at a small, middle and large dose (ip 5, 15, 35 mg/kg). The rats of the normal group and the model control group were ip administered with equal-volume of physiologic saline. The rats of all groups were administered for consecutive 5 days. When the rats were administered for the last time, they were simultaneously anesthetized with 1.5% pentobarbital sodium (ip 45 mg/kg), then a catheter was inserted into the right carotid artery, and connected via a transducer to an eight-channeled physiological recorder. Tracheal cannula was performed, and the ventilation rate was maintained at 60 times/min. The chest was opened, a 6/0 suture was used to form a loop at a site 1˜2 mm from the root of the anterior descending coronary artery, and a plastic pipe was introduced through the loop, then the loop was tightened up. The change of electrocardiogram was observed. An increase or decrease of ST indicated the success of ligation. The color of the myocardial tissue below the ligation suture became darker. 30 minutes later, the plastic pipe was pulled out to allow coronary artery blood flowing again and cause hyperemia of local tissue during reperfusion. For the groups subjected to ischemia for 30 min and reperfusion for 30 min, the myocardial infarction areas were recorded before the test, after ischemia for 1 min and 30 min, and after reperfusion for 30 min; for the groups subjected to ischemia for 30 min and reperfusion for 2 h, cardiac tissue samples were taken and fixed using 10% formalin, embedded with paraffin, serially sliced into sections with a thickness of 4 μm, and separately subjected to immunohistochemistry tests; the rats of the sham operation group were subjected only to the introduction of suture but their coronary arteries were not ligated.
# (§2) Standard immunohistochemistry ABC and SP methods were employed for staining. Bax: anti-rabbit polyclonal antibody (Santa CruzBio. Inc.) at a dilution of 1:200; […]: anti-rabbit polyclonal antibody (TBD Tianjin Biotechnological Center). At a dilution of […]; caspase-3: anti-rabbit polyclonal antibody (Normarkers Fromont, Calif.), at a dilution of 1:200; MMP-2: anti-murine monoclonal antibody (NormarkersFromont, Calif.) at a dilution of 1:200; PPARγ: anti-caprine polyclonal antibody (Santa Cruz Bio. Inc.), at a dilution of 1:500. The specific procedures were performed in accordance with the instructions of the ABC and SP kits, DAB was used for color development, and neutral resin was used for mounting. PBS was used instead of the first antibody as a negative control. Cells with positive expression of the test polypeptides were of brown-yellow color, with MMP-2 protein being present in acytoplasm, Bcl-2 expressed in nuclear membrane and cytoplasm, Bax mainly in cytoplasm and partially in nucleus, and caspase-3 mainly in nucleus and partially in cytoplasm. CMIAS image analysis system was used for random selection of fields of slices and automatic selection of sites for analysis, and statistic analysis was performed by using mean optical density values or integral optical density values of the obtained myocardial tissue slices.
# Bcl-2 = assay: Immunohistochemistry protein expression in I/R myocardial tissue: Bcl-2; settings: for Bcl-2 protein expression, OD value: 5 days, ischemia 30 min, reperfusion 2 h
# Description: as §1, §2
# MMP-2 = assay: Immunohistochemistry protein expression in I/R myocardial tissue: MMP-2; settings: for MMP-2 protein expression, OD value: 5 days, ischemia 30 min, reperfusion 2 h
# Description: as §1, §2
# PPARγ = assay: Immunohistochemistry protein expression in I/R myocardial tissue: PPARγ; settings: 5 days, ischemia 30 min, reperfusion 2 h
# Description: as §1
# Standard immunohistochemistry ABC and SP methods were employed for staining. Bax: anti-rabbit polyclonal antibody (Santa CruzBio. Inc.) at a dilution of 1:200; […]: anti-rabbit polyclonal antibody (TBD Tianjin Biotechnological Center). At a dilution of […]; caspase-3: anti-rabbit polyclonal antibody (Normarkers Fromont, Calif.), at a dilution of 1:200; MMP-2: anti-murine monoclonal antibody (NormarkersFromont, Calif.) at a dilution of 1:200; PPARγ: anti-caprine polyclonal antibody (Santa Cruz Bio. Inc.), at a dilution of 1:500. The specific procedures were performed in accordance with the instructions of the ABC and SP kits, DAB was used for color development, and neutral resin was used for mounting. PBS was used instead of the first antibody as a negative control. […]
# [1] = test system: rats with acute myocardial ischemia; assay: Area of myocardial infarction in rats with acute myocardial ischemia (coronary artery ligation); settings: 24 h after coronary artery ligation
# Description: (§3) At 0.5 h after the rats of these groups were administered intragastrically, the standard II lead electrocardiogram (before modeling) was recorded, and the height of ST-T segment was measured. The rats of sham operation group were then subjected to coronary artery braid without ligation, and the rats of other groups were subjected to coronary artery ligation in accordance with the following method to establish cute myocardial ischemia models. The rats were subjected to etherization, fixed at supine position, and their normal electrocardiograms (before modeling) were recorded. The skin of left thorax was incised under aseptic conditions, the 4th intercostal muscles were isolated in blunt way, the heart was extruded by light pressure to the right thorax, the left anterior descending coronary artery was ligated at a position 2˜3 mm departing from the left coronary artery origin and between the pulmonary conus and the left auricle of heart, then the heart was sent back to thorax cavity immediately and sutured the incision. Penicillin was smeared topically for the prevention of infections. After operation, the electrocardiogram of postischemia was recorded immediately (at 0 min after modeling), and the height of ST-T segment was measured.
# [2] = test system: creatine kinase isoenzyme (CK-MB); assay: Serum CK-MB activity in rats with myocardial ischemia; settings: for CK-MB: serum, 24 h after ligation
# Description: as §3
# [3] = test system: superoxide dismutase (SOD); assay: Serum SOD activity in rats with myocardial ischemia; settings: for SOD: serum, 24 h after ligation
# Description: as §3
# malondialdehyde (MDA) = assay: Serum MDA content in rats with myocardial ischemia; settings: for MDA: serum, 24 h after ligation
# Description: as §3
smiles,measurement,setting,value
"CC1(C)C2CCC1(C)C(OC(=O)C(O)Cc1ccc(O)c(O)c1)C2 (stereo not drawn) [bornyl salvianate ester, bornyl β-(3,4-dihydroxylphenyl)-α-hydroxylpropionate ester]","Bax protein expression, OD value",Bax; 5 mg/kg ip,0.12 ± 0.03
same,"Bax protein expression, OD value",Bax; 15 mg/kg ip,0.09 ± 0.05
same,"Bax protein expression, OD value",Bax; 35 mg/kg ip,0.07 ± 0.03
same,expression of Bax protein (in words),Bax; myocardial cells I/R,reduce the expression of Bax and caspase-3 proteins
same,"Bcl-2 protein expression, OD value",Bcl-2; 5 mg/kg ip,0.15 ± 0.03
same,"Bcl-2 protein expression, OD value",Bcl-2; 15 mg/kg ip,0.15 ± 0.06
same,"Bcl-2 protein expression, OD value",Bcl-2; 35 mg/kg ip,0.21 ± 0.04
same,expression of Bcl-2 protein (in words),Bcl-2; myocardial cells I/R,increase the expression of Bcl-2 protein
same,"MMP-2 protein expression, OD value",MMP-2; 5 mg/kg ip,0.14 ± 0.05
same,"MMP-2 protein expression, OD value",MMP-2; 15 mg/kg ip,0.14 ± 0.03
same,"MMP-2 protein expression, OD value",MMP-2; 35 mg/kg ip,0.11 ± 0.03
same,MMP-2 protein (in words),MMP-2; myocardial I/R,decrease of MMP-2 protein
same,"PPARγ protein expression, OD value",PPARγ; 5 mg/kg ip,0.16 ± 0.05
same,"PPARγ protein expression, OD value",PPARγ; 15 mg/kg ip,0.18 ± 0.06
same,"PPARγ protein expression, OD value",PPARγ; 35 mg/kg ip,0.18 ± 0.10
same,Infarct region weight,[1]; 10 mg/kg intragastric,0.20 ± 0.05 g
same,Non-infarct region weight,[1]; 10 mg/kg intragastric,0.47 ± 0.07 g
same,"Percentage (infarct cardiac muscles of whole ventricle, by weight)",[1]; 10 mg/kg intragastric,30.09 ± 5.69%
same,Ventricle weight,[1]; 10 mg/kg intragastric,0.68 ± 0.09 g
same,Infarct region weight,[1]; 20 mg/kg intragastric,0.18 ± 0.05 g
same,Non-infarct region weight,[1]; 20 mg/kg intragastric,0.49 ± 0.09 g
same,"Percentage (infarct cardiac muscles of whole ventricle, by weight)",[1]; 20 mg/kg intragastric,25.73 ± 6.35 %
same,Ventricle weight,[1]; 20 mg/kg intragastric,0.68 ± 0.08 g
same,Infarct region weight,[1]; 40 mg/kg intragastric,0.18 ± 0.04 g
same,Non-infarct region weight,[1]; 40 mg/kg intragastric,0.45 ± 0.06 g
same,"Percentage (infarct cardiac muscles of whole ventricle, by weight)",[1]; 40 mg/kg intragastric,28.95 ± 5.57 %
same,Ventricle weight,[1]; 40 mg/kg intragastric,0.63 ± 0.07 g
same,CK-MB,[2]; 10 mg/kg intragastric,1267.0 ± 274.4 U/L
same,CK-MB,[2]; 20 mg/kg intragastric,1074.1 ± 116.8 U/L
same,CK-MB,[2]; 40 mg/kg intragastric,906.3 ± 99.9 U/L
same,activity of creatine kinase isoenzyme (CK-MB) (in words),"[2]; all dose groups, 24 h later",decreased
same,SOD,[3]; 10 mg/kg intragastric,117.66 ± 31.97 U/mL
same,SOD,[3]; 20 mg/kg intragastric,111.32 ± 20.36 U/mL
same,SOD,[3]; 40 mg/kg intragastric,119.63 ± 23.53 U/mL
same,superoxide dismutase (SOD) (in words),[3]; especially in the large dose group,increased
same,MDA,malondialdehyde (MDA); 10 mg/kg intragastric,21.69 ± 27.94 nmol/mL
same,MDA,malondialdehyde (MDA); 20 mg/kg intragastric,10.60 ± 11.156 nmol/mL
same,MDA,malondialdehyde (MDA); 40 mg/kg intragastric,9.43 ± 6.57 nmol/mL
same,serum MDA content (in words),"malondialdehyde (MDA); middle and large dose groups, no significant difference from model control",decrease tendency
